Usually Ki stands for a dissociation constant, usually derived from enzyme kinetics or from competition with a known ligand. A low value points to tighter binding.

Among the targets are Glutamate receptor 4 (Homo sapiens, UniProt P48058); Glutamate receptor 2 (Homo sapiens, UniProt P42262); Glutamate receptor 1 (Homo sapiens, UniProt P42261).
For assay [1], the target named is Glutamate receptor ionotropic, kainate 2 (Homo sapiens, UniProt Q13002).
Assay [2] has as its target Glutamate receptor ionotropic, kainate 3 (Homo sapiens, UniProt Q13003).
Assay [3] concerns the target T1, Glutamate receptor ionotropic, kainate 5 (Homo sapiens, UniProt Q16478).
T1 sequence (Q16478 whole entry): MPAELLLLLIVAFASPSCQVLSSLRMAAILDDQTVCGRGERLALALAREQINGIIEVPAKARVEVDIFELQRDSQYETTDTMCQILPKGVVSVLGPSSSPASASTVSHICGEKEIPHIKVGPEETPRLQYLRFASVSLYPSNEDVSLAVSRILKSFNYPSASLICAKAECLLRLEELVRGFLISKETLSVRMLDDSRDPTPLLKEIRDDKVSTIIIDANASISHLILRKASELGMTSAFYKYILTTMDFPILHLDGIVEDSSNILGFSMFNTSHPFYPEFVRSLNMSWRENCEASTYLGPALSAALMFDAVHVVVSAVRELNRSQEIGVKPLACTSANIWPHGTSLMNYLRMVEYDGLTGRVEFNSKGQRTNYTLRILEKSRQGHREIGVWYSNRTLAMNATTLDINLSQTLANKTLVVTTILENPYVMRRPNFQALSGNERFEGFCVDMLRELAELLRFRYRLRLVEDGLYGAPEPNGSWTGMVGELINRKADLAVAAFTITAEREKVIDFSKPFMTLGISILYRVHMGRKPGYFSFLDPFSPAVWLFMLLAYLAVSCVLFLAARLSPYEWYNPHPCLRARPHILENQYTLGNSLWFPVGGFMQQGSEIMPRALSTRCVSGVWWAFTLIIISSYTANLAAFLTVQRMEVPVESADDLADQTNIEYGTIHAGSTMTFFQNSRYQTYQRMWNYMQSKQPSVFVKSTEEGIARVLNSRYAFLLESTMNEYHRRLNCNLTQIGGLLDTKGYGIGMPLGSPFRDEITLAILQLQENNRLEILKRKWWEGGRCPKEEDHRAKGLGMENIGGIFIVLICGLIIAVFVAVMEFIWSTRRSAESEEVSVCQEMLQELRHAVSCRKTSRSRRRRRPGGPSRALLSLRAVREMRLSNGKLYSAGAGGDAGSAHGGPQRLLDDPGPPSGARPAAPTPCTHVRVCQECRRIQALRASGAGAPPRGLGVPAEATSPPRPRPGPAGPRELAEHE

Sequence of Glutamate receptor ionotropic, kainate 2 (Q13002 whole entry): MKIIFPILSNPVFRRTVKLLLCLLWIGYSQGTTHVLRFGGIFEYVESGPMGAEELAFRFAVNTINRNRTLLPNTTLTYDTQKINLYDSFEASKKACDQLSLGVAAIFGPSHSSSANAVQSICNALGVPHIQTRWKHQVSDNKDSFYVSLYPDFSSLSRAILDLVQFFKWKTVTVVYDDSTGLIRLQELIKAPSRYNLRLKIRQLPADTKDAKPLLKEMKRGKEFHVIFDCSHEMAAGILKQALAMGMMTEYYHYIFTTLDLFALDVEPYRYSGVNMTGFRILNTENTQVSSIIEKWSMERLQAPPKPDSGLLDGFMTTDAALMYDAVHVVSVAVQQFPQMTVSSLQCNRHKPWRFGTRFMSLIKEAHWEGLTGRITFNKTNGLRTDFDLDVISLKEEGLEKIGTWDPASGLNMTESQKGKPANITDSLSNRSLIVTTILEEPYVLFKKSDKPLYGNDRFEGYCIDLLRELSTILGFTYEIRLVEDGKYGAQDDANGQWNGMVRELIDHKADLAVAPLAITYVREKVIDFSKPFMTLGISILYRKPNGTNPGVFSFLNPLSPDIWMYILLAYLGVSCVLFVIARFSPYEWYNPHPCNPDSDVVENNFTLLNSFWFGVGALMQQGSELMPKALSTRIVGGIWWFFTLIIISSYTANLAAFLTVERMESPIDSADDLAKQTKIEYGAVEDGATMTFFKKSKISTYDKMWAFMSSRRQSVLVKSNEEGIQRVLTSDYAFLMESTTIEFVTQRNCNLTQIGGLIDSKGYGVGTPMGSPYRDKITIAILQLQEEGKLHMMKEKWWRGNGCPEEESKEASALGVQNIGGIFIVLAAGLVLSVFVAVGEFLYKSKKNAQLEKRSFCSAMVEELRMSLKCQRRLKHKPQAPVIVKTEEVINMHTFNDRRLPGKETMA
Sequence of Glutamate receptor 2 (P42262 whole entry): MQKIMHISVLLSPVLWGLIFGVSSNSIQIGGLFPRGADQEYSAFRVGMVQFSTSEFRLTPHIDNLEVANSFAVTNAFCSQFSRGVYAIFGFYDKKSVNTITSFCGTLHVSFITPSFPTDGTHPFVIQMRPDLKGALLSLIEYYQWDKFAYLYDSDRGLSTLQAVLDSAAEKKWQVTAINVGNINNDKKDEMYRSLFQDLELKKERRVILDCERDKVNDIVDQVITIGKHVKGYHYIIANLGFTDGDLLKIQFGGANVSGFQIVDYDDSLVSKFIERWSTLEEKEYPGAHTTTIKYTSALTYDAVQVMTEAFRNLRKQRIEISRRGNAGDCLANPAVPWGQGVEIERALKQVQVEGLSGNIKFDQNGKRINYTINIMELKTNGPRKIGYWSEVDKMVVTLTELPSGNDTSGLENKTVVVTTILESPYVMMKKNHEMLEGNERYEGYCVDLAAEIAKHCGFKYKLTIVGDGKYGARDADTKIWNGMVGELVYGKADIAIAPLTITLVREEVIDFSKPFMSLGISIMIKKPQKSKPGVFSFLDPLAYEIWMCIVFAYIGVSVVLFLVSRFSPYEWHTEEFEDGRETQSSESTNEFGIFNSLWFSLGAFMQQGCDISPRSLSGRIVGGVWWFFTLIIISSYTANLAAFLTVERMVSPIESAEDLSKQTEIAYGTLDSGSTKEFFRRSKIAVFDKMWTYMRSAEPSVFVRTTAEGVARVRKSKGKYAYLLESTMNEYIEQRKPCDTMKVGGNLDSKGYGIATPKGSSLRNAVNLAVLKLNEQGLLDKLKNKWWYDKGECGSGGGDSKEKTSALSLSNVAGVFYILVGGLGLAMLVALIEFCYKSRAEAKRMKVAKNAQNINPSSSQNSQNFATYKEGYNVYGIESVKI
Sequence of Glutamate receptor 4 (P48058 whole entry): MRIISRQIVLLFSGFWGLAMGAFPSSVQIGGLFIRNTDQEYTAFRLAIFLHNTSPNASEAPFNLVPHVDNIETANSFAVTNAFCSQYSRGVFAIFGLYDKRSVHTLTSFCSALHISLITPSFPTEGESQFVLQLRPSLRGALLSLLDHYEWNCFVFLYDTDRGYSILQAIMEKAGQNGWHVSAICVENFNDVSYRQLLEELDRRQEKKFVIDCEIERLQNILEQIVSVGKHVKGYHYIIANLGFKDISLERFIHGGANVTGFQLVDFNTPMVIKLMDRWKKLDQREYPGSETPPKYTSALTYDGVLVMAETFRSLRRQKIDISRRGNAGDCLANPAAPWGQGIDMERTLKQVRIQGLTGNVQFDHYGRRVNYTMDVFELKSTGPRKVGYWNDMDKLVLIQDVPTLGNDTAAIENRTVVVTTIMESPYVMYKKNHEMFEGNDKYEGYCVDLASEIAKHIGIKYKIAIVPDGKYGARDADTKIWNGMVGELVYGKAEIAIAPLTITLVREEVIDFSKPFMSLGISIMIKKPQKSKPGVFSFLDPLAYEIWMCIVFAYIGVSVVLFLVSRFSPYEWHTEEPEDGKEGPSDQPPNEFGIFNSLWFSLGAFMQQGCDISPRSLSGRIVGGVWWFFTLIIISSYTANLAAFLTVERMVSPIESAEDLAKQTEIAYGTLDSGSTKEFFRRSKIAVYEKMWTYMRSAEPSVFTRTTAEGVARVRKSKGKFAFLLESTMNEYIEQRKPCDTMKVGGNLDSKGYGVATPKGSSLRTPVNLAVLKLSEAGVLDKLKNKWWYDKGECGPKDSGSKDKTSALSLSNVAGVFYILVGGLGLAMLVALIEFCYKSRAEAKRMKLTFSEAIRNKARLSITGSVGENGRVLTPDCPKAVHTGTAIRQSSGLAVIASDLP
Sequence of Glutamate receptor 1 (P42261 whole entry): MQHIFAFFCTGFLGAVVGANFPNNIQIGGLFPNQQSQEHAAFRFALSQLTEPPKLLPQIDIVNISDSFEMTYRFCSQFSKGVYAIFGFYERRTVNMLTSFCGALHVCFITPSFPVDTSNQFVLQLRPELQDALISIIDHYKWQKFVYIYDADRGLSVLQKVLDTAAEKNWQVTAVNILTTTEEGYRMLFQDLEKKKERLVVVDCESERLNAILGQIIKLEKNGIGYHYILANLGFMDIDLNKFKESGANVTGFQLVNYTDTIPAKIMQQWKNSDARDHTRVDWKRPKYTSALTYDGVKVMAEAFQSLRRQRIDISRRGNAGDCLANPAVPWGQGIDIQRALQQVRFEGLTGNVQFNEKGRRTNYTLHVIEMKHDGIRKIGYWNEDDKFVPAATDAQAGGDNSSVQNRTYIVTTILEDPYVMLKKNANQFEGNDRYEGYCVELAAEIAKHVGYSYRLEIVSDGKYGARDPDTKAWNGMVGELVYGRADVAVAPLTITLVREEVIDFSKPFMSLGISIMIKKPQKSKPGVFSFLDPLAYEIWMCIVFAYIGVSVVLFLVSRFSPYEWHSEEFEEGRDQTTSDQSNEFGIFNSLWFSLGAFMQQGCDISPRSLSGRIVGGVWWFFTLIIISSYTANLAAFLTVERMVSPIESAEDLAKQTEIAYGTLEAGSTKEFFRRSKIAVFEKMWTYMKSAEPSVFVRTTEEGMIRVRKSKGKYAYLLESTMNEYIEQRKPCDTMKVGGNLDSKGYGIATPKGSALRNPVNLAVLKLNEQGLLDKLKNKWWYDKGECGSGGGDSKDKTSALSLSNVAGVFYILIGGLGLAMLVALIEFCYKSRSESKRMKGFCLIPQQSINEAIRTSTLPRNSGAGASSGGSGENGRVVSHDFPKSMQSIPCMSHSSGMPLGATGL
Sequence of Glutamate receptor ionotropic, kainate 3 (Q13003 whole entry): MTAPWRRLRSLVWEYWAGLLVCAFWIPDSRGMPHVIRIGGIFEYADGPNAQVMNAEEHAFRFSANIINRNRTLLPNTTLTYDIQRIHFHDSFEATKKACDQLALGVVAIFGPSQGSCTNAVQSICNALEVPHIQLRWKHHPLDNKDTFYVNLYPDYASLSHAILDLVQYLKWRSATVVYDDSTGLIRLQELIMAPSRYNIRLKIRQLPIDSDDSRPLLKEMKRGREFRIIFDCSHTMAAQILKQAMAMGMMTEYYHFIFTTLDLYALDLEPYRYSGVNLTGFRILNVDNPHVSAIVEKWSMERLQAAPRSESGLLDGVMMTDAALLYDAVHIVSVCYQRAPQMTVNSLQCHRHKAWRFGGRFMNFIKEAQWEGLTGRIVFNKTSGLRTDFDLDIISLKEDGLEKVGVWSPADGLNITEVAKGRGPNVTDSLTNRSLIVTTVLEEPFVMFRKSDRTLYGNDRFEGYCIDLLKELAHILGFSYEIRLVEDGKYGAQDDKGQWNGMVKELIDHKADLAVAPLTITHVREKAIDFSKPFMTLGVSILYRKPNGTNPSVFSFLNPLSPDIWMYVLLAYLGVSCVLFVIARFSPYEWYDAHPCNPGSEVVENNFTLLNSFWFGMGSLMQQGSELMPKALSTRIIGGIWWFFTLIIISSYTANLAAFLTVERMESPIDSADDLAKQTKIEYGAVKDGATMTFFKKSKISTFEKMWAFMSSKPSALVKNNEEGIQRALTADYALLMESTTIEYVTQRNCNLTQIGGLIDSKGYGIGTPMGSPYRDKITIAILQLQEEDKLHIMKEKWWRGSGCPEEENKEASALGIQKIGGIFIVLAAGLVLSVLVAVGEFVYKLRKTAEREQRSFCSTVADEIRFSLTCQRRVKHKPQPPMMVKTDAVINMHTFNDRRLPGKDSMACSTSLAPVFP

With `O=C(O)[C@@H]1C[C@H]2C[C@@H](CCc3nn[nH]n3)CC[C@H]2CN1`, the inhibition constant Ki is above 10 µM in assay [1], above 10 µM in assay [2], 4.2 µM in assay [3] and above 10 µM on Glutamate receptor 4.

Turning to `O=C(O)c1ccc(C[C@H]2CC[C@H]3CN[C@H](C(=O)O)C[C@H]3C2)cc1` [LY 382884], the inhibition constant (Ki) in assay [1] is above 10 µM; at Glutamate receptor 2, above 10 µM; in assay [2], above 10 µM; in assay [3], 4 µM; at Glutamate receptor 1 it was above 10 µM; on Glutamate receptor 4, above 10 µM.

Molecule `O=C(O)[C@@H]1C[C@H]2C[C@@H](Nc3ccccc3-c3nnn[nH]3)CC[C@H]2CN1` [LY 457691] returned an inhibition constant Ki in assay [3] of 1.55 µM.

In the case of `O=C(O)[C@@H]1C[C@H]2CC(COCc3nnn[nH]3)CC[C@H]2CN1` (some centres undefined) [LY-294486], the Ki on Glutamate receptor 2 was above 10 µM; in assay [3], 3.06 µM.

`O=C(O)[C@@H]1C[C@H]2C[C@@H](CS(=O)(=O)c3nnc[nH]3)CC[C@H]2CN1` [LY-302679] had an inhibitory constant (Ki) in assay [3] of 3.41 µM.

Consider `O=C(O)[C@@H]1C[C@H]2C[C@@H](Oc3ccccc3-c3nnn[nH]3)CC[C@H]2CN1` [LY-458545], for which the affinity in assay [3] corresponds to a Ki of 1.69 µM. Against the preceding molecule, the Ki is about 2-fold lower.

`O=C(O)C1CC(F)(F)CN1C[C@H]1CC[C@H]2CN[C@H](C(=O)O)C[C@H]2C1` (some centres undefined) [LY-466195]: the inhibition constant Ki in assay [1] was above 10 µM; at Glutamate receptor 2 it was above 10 µM; in assay [3], 0.05 µM; at Glutamate receptor 1 it was above 10 µM; at Glutamate receptor 4, above 10 µM.

With `CCC(C)OC(=O)[C@@H]1C[C@H]2C[C@@H](Oc3ccccc3-c3nnn[nH]3)CC[C@H]2CN1` (some centres undefined) [LY-467711], the inhibition constant (Ki) on Glutamate receptor 2 was above 10 µM; in assay [3] it was 7.4 µM.

`CCC(CC)COC(=O)[C@@H]1C[C@H]2C[C@@H](Nc3ccccc3-c3nnn[nH]3)CC[C@H]2CN1` [LY-525327]: the Ki (on Glutamate receptor 2; in assay [3]) was above 10 µM throughout.

For the origin of these results see BindingDB's records for doi:10.1124/jpet.106.101428 (Eli Lilly, 2006).
